Measured values as given in BindingDB's records for doi:10.1021/cc020096o (University of Anterwerp, 2003).

Legend:
[1] = target: Dipeptidyl peptidase 4 (Homo sapiens, UniProt P27487); assay: DPP IV Assay; conditions: pH 8.3
Experimental: Inhibitory concentration of the compound against Dipeptidyl peptidase IV (DPP IV) in Homo sapiens (human)is measured

[2] = target: Dipeptidyl peptidase 2 (Homo sapiens, UniProt Q9UHL4); assay: DPP IV Assay; conditions: pH 5.5

Dipeptidyl peptidase 4, sequence (P27487 whole entry): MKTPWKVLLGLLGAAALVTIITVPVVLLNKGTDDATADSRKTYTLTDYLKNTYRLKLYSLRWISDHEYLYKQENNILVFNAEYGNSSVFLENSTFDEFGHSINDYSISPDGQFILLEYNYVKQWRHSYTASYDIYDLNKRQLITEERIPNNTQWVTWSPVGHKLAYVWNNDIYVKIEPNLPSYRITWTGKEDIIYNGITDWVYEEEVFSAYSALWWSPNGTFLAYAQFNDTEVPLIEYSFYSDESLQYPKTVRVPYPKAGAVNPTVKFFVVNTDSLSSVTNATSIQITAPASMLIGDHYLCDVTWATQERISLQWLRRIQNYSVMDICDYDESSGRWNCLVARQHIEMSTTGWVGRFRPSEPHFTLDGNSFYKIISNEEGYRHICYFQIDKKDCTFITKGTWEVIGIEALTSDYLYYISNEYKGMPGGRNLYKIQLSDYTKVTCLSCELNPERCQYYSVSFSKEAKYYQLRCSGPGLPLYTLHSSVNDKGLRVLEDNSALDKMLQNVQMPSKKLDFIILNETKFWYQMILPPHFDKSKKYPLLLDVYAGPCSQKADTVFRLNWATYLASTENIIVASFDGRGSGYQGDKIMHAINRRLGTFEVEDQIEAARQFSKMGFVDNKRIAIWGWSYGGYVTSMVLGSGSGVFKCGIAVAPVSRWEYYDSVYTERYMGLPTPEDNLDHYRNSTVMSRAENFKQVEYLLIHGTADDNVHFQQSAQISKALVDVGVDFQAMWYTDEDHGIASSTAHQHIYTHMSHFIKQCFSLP

Compound | IC50 [1] [µM] | IC50 [2] [µM]
O=C(CNC1CCCC1)NC(c1ccccc1)P(=O)(Oc1ccccc1)Oc1ccccc1 (centres undefined) | > 125 | 3.8
C[C@H](N)C(=O)N1CCCC1P(=O)(Oc1ccccc1)Oc1ccccc1 (some centres undefined) | > 1000 | > 1000
NC(=O)C[C@H](N)C(=O)N1CCCC1P(=O)(Oc1ccccc1)Oc1ccccc1 (some centres undefined) |  | > 125
N[C@@H](CC(=O)O)C(=O)N1CCCC1P(=O)(Oc1ccccc1)Oc1ccccc1 (some centres undefined) | > 1000 | 
N[C@@H](Cc1cnc[nH]1)C(=O)N1CCCC1P(=O)(Oc1ccccc1)Oc1ccccc1 (some centres undefined) | 326 | 
NCCCC[C@H](N)C(=O)N1CCCC1P(=O)(Oc1ccccc1)Oc1ccccc1 (some centres undefined) | 117 | > 1000
N[C@@H](Cc1ccccc1)C(=O)N1CCCC1P(=O)(Oc1ccccc1)Oc1ccccc1 (some centres undefined) | 142 | > 1000
CC(NC(=O)CN)P(=O)(Oc1ccccc1)Oc1ccccc1 (centres undefined) [2-amino-N-(1-diphenoxyphosphorylethyl)acetamide] | > 500 | > 1000
NCC[C@H](N)C(=O)NC(C1CCCCC1)P(=O)(Oc1ccccc1)Oc1ccccc1 (stereo partly drawn) [(2S)-2,4-diamino-N-[cyclohexyl(diphenoxyphosphoryl)methyl]butanamide] | 1000 | 21
CCCC(NC(=O)[C@@H](N)CCCCN)P(=O)(Oc1ccccc1)Oc1ccccc1 (stereo partly drawn) [(2S)-2,6-diamino-N-(1-diphenoxyphosphorylbutyl)hexanamide] | > 1000 | > 1000
CC(NC(=O)[C@@H](N)CCCCN)P(=O)(Oc1ccccc1)Oc1ccccc1 (stereo partly drawn) [(2S)-2,6-diamino-N-(1-diphenoxyphosphorylethyl)hexanamide] | > 500 | > 1000
N[C@@H](CO)C(=O)N1CCCC1P(=O)(Oc1ccccc1)Oc1ccccc1 (stereo partly drawn) [(2S)-2-amino-1-(2-diphenoxyphosphorylpyrrolidin-1-yl)-3-hydroxy-propan-1-one] | 503 | > 1000
CCCC(NC(=O)[C@@H](N)CC1CCCCC1)P(=O)(Oc1ccccc1)Oc1ccccc1 (stereo partly drawn) [(2S)-2-amino-3-cyclohexyl-N-(1-diphenoxyphosphorylbutyl)propanamide] | > 250 | 500
CC(NC(=O)[C@@H](N)CC1CCCCC1)P(=O)(Oc1ccccc1)Oc1ccccc1 (stereo partly drawn) [(2S)-2-amino-3-cyclohexyl-N-(1-diphenoxyphosphorylethyl)propanamide] | > 500 | 47
CCC(NC(=O)[C@@H](N)CC1CCCCC1)P(=O)(Oc1ccccc1)Oc1ccccc1 (stereo partly drawn) [(2S)-2-amino-3-cyclohexyl-N-(1-diphenoxyphosphorylpropyl)propanamide] | > 1000 | 62
N[C@@H](CC1CCCCC1)C(=O)NC(C1CCCCC1)P(=O)(Oc1ccccc1)Oc1ccccc1 (stereo partly drawn) [(2S)-2-amino-3-cyclohexyl-N-[cyclohexyl(diphenoxyphosphoryl)methyl]propanamide] | > 250 | 30
CCC(CC)C(NC(=O)[C@@H](N)C(C)CC)P(=O)(Oc1ccccc1)Oc1ccccc1 (stereo partly drawn) [(2S)-2-amino-N-(1-diphenoxyphosphoryl-2-ethyl-butyl)-3-methyl-pentanamide] | > 1000 | > 1000
CCC(C)C(NC(=O)[C@@H](N)C(C)CC)P(=O)(Oc1ccccc1)Oc1ccccc1 (stereo partly drawn) [(2S)-2-amino-N-(1-diphenoxyphosphoryl-2-methyl-butyl)-3-methyl-pentanamide] | > 1000 | 414
CCC(C)[C@H](N)C(=O)NC(C(C)C)P(=O)(Oc1ccccc1)Oc1ccccc1 (stereo partly drawn) [(2S)-2-amino-N-(1-diphenoxyphosphoryl-2-methyl-propyl)-3-methyl-pentanamide] | > 1000 | 1000

Compound | IC50 [1] [µM] | IC50 [2] [µM]
CCC(C)[C@H](N)C(=O)NC(CC(C)C)P(=O)(Oc1ccccc1)Oc1ccccc1 (stereo partly drawn) [(2S)-2-amino-N-(1-diphenoxyphosphoryl-3-methyl-butyl)-3-methyl-pentanamide] | > 1000 | 286
CCCC(NC(=O)[C@@H](N)C(C)CC)P(=O)(Oc1ccccc1)Oc1ccccc1 (stereo partly drawn) [(2S)-2-amino-N-(1-diphenoxyphosphorylbutyl)-3-methyl-pentanamide] | > 1000 | 1000
CC(NC(=O)[C@@H](N)Cc1cnc[nH]1)P(=O)(Oc1ccccc1)Oc1ccccc1 (stereo partly drawn) [(2S)-2-amino-N-(1-diphenoxyphosphorylethyl)-3-(1H-imidazol-4-yl)propanamide] | > 500 | > 500
CC(NC(=O)[C@@H](N)Cc1ccc(O)cc1)P(=O)(Oc1ccccc1)Oc1ccccc1 (stereo partly drawn) [(2S)-2-amino-N-(1-diphenoxyphosphorylethyl)-3-(4-hydroxyphenyl)propanamide] | > 500 | > 500
CC(NC(=O)[C@@H](N)CO)P(=O)(Oc1ccccc1)Oc1ccccc1 (stereo partly drawn) [(2S)-2-amino-N-(1-diphenoxyphosphorylethyl)-3-hydroxy-propanamide] | > 500 | > 1000
CC(C)[C@H](N)C(=O)NC(C)P(=O)(Oc1ccccc1)Oc1ccccc1 (stereo partly drawn) [(2S)-2-amino-N-(1-diphenoxyphosphorylethyl)-3-methyl-butanamide] | > 500 | < 1000
CCC(C)[C@H](N)C(=O)NC(C)P(=O)(Oc1ccccc1)Oc1ccccc1 (stereo partly drawn) [(2S)-2-amino-N-(1-diphenoxyphosphorylethyl)-3-methyl-pentanamide] | > 500 | 116
CC(NC(=O)[C@@H](N)Cc1ccccc1)P(=O)(Oc1ccccc1)Oc1ccccc1 (stereo partly drawn) [(2S)-2-amino-N-(1-diphenoxyphosphorylethyl)-3-phenyl-propanamide] | > 500 | < 1000
CC(C)C[C@H](N)C(=O)NC(C)P(=O)(Oc1ccccc1)Oc1ccccc1 (stereo partly drawn) [(2S)-2-amino-N-(1-diphenoxyphosphorylethyl)-4-methyl-pentanamide] | > 1000 | > 500
CC(NC(=O)[C@@H](N)CC(N)=O)P(=O)(Oc1ccccc1)Oc1ccccc1 (stereo partly drawn) [(2S)-2-amino-N-(1-diphenoxyphosphorylethyl)butanediamide] |  | 286
CC(NC(=O)[C@H](C)N)P(=O)(Oc1ccccc1)Oc1ccccc1 (stereo partly drawn) [(2S)-2-amino-N-(1-diphenoxyphosphorylethyl)propanamide] |  | < 1000
CCC(C)[C@H](N)C(=O)NC(CC)P(=O)(Oc1ccccc1)Oc1ccccc1 (stereo partly drawn) [(2S)-2-amino-N-(1-diphenoxyphosphorylpropyl)-3-methyl-pentanamide] | > 1000 | 1000
CCC(C)[C@H](N)C(=O)NC(c1cccc(C#N)c1)P(=O)(Oc1ccccc1)Oc1ccccc1 (stereo partly drawn) [(2S)-2-amino-N-[(3-cyanophenyl)-diphenoxyphosphoryl-methyl]-3-methyl-pentanamide] | > 125 | 509
CCC(C)[C@H](N)C(=O)NC(c1ccc(C#N)cc1)P(=O)(Oc1ccccc1)Oc1ccccc1 (stereo partly drawn) [(2S)-2-amino-N-[(4-cyanophenyl)-diphenoxyphosphoryl-methyl]-3-methyl-pentanamide] | > 250 | 150
N[C@@H](Cc1cnc[nH]1)C(=O)NC(C1CCCCC1)P(=O)(Oc1ccccc1)Oc1ccccc1 (stereo partly drawn) [(2S)-2-amino-N-[cyclohexyl(diphenoxyphosphoryl)methyl]-3-(1H-imidazol-4-yl)propanamide] | > 1000 | 241
CCC(C)[C@H](N)C(=O)NC(C1CCCCC1)P(=O)(Oc1ccccc1)Oc1ccccc1 (stereo partly drawn) [(2S)-2-amino-N-[cyclohexyl(diphenoxyphosphoryl)methyl]-3-methyl-pentanamide] | > 1000 | 148
CCC(C)[C@H](N)C(=O)NC(c1ccccc1)P(=O)(Oc1ccccc1)Oc1ccccc1 (stereo partly drawn) [(2S)-2-amino-N-[diphenoxyphosphoryl(phenyl)methyl]-3-methyl-pentanamide] | > 250 | 18
O=C(CNC1CCCC1)NC(C1CCCCC1)P(=O)(Oc1ccccc1)Oc1ccccc1 (centres undefined) [N-[cyclohexyl(diphenoxyphosphoryl)methyl]-2-(cyclopentylamino)acetamide] | > 125 | 8
